The test system of assay [1] is 28-standard receptor-binding profile. The conditions noted are these: 1µM; cited from earlier work.
In assay [2] the target is T1, [^3H]glycine uptake sites (GlyT-1) (Mus musculus, UniProt P28571).
T1 sequence (P28571 1-692): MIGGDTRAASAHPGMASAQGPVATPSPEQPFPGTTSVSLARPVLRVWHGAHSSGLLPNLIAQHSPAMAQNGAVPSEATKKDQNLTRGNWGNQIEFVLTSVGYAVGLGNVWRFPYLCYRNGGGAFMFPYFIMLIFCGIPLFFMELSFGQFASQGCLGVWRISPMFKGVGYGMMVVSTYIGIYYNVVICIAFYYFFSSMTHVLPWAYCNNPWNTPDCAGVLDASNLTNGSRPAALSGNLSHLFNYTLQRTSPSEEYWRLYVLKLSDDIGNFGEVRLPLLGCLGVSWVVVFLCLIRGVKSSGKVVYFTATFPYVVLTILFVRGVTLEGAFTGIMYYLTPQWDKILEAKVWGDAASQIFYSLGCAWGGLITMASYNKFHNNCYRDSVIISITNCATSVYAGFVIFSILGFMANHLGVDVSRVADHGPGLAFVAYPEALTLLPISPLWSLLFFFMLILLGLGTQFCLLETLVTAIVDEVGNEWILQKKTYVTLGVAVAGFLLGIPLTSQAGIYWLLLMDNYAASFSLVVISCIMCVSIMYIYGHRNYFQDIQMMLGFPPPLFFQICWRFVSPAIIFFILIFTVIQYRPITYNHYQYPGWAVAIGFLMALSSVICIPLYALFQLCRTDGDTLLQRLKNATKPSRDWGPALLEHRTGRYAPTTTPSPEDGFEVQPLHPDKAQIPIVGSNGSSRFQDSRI
Description: Inhibition of [^3H]glycine uptake in mouse brain homogenates. The assay is classed as biochemical.

Structures are written as SMILES.

In the case of `CN1CCCC[C@@H]1[C@@H](NC(=O)c1nccc(C(F)(F)F)c1Cl)c1ccsc1` [CHIBA-3007, 3-chloro-N-((S)-((R)-1-methylpiperidin-2-yl)(thiophen-3-yl)methyl)-4-(trifluoromethyl)picolinamide], in assay [1], the “inhibition in 28-standard receptor-binding profile” value was less than 50%. Also, the 50% inhibitory concentration (IC50) – broadly, the point on the concentration scale where inhibition reaches its midpoint – in assay [2] was 2.7 nM.

Source of the values: article PMC3569154 (Clinical Psychopharmacology and Neuroscience, 2012).
